Laboratory results from patent US6326372A, “Lactam and cyclic urea derivatives useful as alpha 1a adrenoceptor antagonists” (Merck & Co., Inc., priority 2000, dated 2001).
Where a name gives a salt, the structure may show the parent alone.

Test system: alpha 1a receptors versus alpha 1b and alpha 1d receptors
Experiment: Selective Binding Assays: binding to alpha 1a versus alpha 1b and alpha 1d receptors ([125I]-HEAT competition binding)
Set-up: species or system human
Conditions: alpha 1a versus both alpha 1b and alpha 1d; at least about
Description: Membranes prepared from the stably transfected human alpha 1a cell line (ATCC CRL 11140) were used to identify compounds that bind to the human alpha 1a adrenergic receptor. These competition binding reactions (total volume=200 μl) contained 50 mM Tris-HCl pH. 7.4, 5 mM EDTA, 150 mM NaCl, 100 pM [^125 I]-HEAT, membranes prepared from the alpha 1a cell line and increasing amounts of unlabeled ligand. Reactions were incubated at room temperature for one hour with shaking. Reactions were filtered onto Whatman GF/C glass fiber filters with a Inotec 96 well cell harvester. Filters were washed three times with ice cold buffer and bound radioactivity was determined (Ki).
Membranes prepared from stably transfected human alpha 1d and alpha 1b cell lines (ATCC CRL 11138 and CRL 11139, respectively) were used to identify compounds that selectively bind to the human alpha 1a adrenergic receptor. These competition binding reactions (total volume=200 μl) contained 50 mM Tris-HCl pH. 7.4, 5 mM EDTA, 150 mM NaCl, 100 pM [^125 I]-HEAT, membranes prepared from cell lines transfected with the respective alpha 1 subtype expression plasmid and increasing amounts of unlabeled ligand. Reactions were incubated at room temperature for one hour with shaking. Reactions were filtered onto Whatman GF/C glass fiber filters with a Inotec 96 well cell harvester. Filters were washed three times with ice cold buffer and bound radioactivity was determined (Ki).

Row | fold more selective in binding to alpha 1a receptors versus binding to the alpha 1b and alpha 1d receptors | Structure (SMILES)
1 | at least 10 fold | O=C1CCCC(c2ccc(F)c(F)c2)N1C(=O)NCCCN1CCC(c2ccc(F)cc2)CC1 (racemic) [Example 4, (6RS)-, 6(R)-, and 6(S)-1-[3-[4-(4-Fluorophenyl)piperidin-1-yl]-propylaminocarbonyl]-6-(3,4-difluorophenyl)piperidin-2-one Hydrochloride]
2 | at least 10 fold | O=C(NCCCN1CCC(c2ccc(F)cc2)CC1)N1C(=O)NC[C@@H](C2CC2)[C@@H]1c1ccc(F)c(F)c1 (relative stereo) [Example 21 (Isomer A), (4R,5S)-, (4S,5S)-, (4R,5R)-, and (4S,5R)-5-Cyclopropyl-4-(3,4-difluorophenyl)-3-[(4'-(4-fluorophenyl)piperidin-1'-yl)propyl]aminocarbonyltetrahydropyrimidin-2-one Hydrochlorides]
3 | at least 10 fold | O=C(NCCCN1CCC(c2ccc(F)cc2)CC1)N1C(=O)NC[C@@H](C2CC2)[C@@H]1c1ccc(F)c(F)c1 (relative stereo) [Example 21 (Isomer C), (4R,5S)-, (4S,5S)-, (4R,5R)-, and (4S,5R)-5-Cyclopropyl-4-(3,4-difluorophenyl)-3-[(4'-(4-fluorophenyl)piperidin-1'-yl)propyl]aminocarbonyltetrahydropyrimidin-2-one Hydrochlorides]
4 | at least 10 fold | O=C(NCCCN1CCC(c2ccc(F)cc2)CC1)N1C(=O)NC[C@H](C2CC2)[C@@H]1c1ccc(F)c(F)c1 (relative stereo) [Example 21 (Isomer D), (4R,5S)-, (4S,5S)-, (4R,5R)-, and (4S,5R)-5-Cyclopropyl-4-(3,4-difluorophenyl)-3-[(4'-(4-fluorophenyl)piperidin-1'-yl)propyl]aminocarbonyltetrahydropyrimidin-2-one Hydrochlorides]
5 | at least 10 fold | CC1(C)CCC(c2ccc(F)c(F)c2)N(C(=O)NCCCN2CCC(c3ccc(F)cc3)CC2)C1=O.Cl (single isomer, unassigned) [Example 1]
6 | at least 10 fold | CC1(C)CC(=O)N(C(=O)NCCCN2CCC(c3ccc(F)cc3)CC2)C(c2ccc(F)c(F)c2)C1.Cl (single isomer, unassigned) [Example 2 (Enantiomer A)]
7 | at least 10 fold | CC1CC(=O)N(C(=O)NCCCN2CCC(c3ccc(F)cc3)CC2)C(c2ccc(F)c(F)c2)C1 (single isomer, unassigned) [Example 3 (Isomer A), Hydrochloride]
8 | at least 10 fold | CC1CC(=O)N(C(=O)NCCCN2CCC(c3ccc(F)cc3)CC2)C(c2ccc(F)c(F)c2)C1 (single isomer, unassigned) [Example 3 (Isomer C), Hydrochloride]
9 | at least 10 fold | O=C1CCCC(c2ccc(F)c(F)c2)N1C(=O)NCCCN1CCC(c2ccccn2)CC1 (single isomer, unassigned) [Example 8, Dihydrochloride]
10 | at least 10 fold | N#Cc1cc(F)ccc1C1CCN(CCCNC(=O)N2C(=O)CCCC2c2ccc(F)c(F)c2)CC1 (single isomer, unassigned) [Example 9, hydrochloride]
11 | at least 10 fold | O=C1CCCC(c2ccc(F)c(F)c2)N1C(=O)N[C@@H]1CCN([C@H]2CC[C@H](c3ccccn3)CC2)C1 (single isomer, unassigned) [Example 10 (Enantiomer A), Dihydrochloride]
12 | at least 10 fold | C[C@H](c1ccccc1)N1CCC(c2ccc(F)c(F)c2)N(C(=O)NCCCN2CCC(c3ccc(F)cc3)CC2)C1=O (single isomer, unassigned) [Example 14 (Step 8, Diastereomer A), Hydrochloride]
13 | at least 10 fold | O=C(NCCCN1CCC(c2ccc(F)cc2)CC1)N1C(=O)NCCC1c1ccc(F)c(F)c1 (single isomer, unassigned) [Example 14 (Step 9, Enantiomer A), Hydrochloride]
14 | at least 10 fold | C[C@H](c1ccccc1)N1CC(C)(C)C(c2ccc(F)c(F)c2)N(C(=O)NCCCN2CCC(c3ccc(F)cc3)CC2)C1=O (single isomer, unassigned) [Example 18 (Step 2, Diastereomer A)]
15 | at least 10 fold | CC1(C)CNC(=O)N(C(=O)NCCCN2CCC(c3ccc(F)cc3)CC2)C1c1ccc(F)c(F)c1 (single isomer, unassigned) [Example 18 (Step 3, Enantiomer A), Hydrochloride]
16 | at least 10 fold | CC1(C)CNC(=O)N(C(=O)NCCCN2CCC(c3ccc(F)cc3)CC2)C1c1ccc(F)c(F)c1 (single isomer, unassigned) [Example 18 (Step 3, Enantiomer B), Hydrochloride]
17 | at least 10 fold | O=C(NCCCN1CCC(c2ccc(F)cc2)CC1)N1C(=O)NCC2(CCCCC2)C1c1ccc(F)c(F)c1 (single isomer, unassigned) [Example 20 (Isomer B), (4'R)- and (4'S)-Spirocyclohexane-[1,5']-{4-(3,4-difluorophenyl)-3-[(4'-(4-fluorophenyl)piperidin-1'-yl)propyl]aminocarbonyl}tetrahydropyrimidin-2-one Hydrochloride]
18 | at least 10 fold | CC1CNC(=O)N(C(=O)NCCCN2CCC(c3ccc(F)cc3)CC2)C1c1ccc(F)c(F)c1 (single isomer, unassigned) [Example 22 (Isomer B), Hydrochloride]
19 | at least 10 fold | CC1CNC(=O)N(C(=O)NCCCN2CCC(c3ccc(F)cc3)CC2)C1c1ccc(F)c(F)c1 (single isomer, unassigned) [Example 22 (Isomer C), Hydrochloride]
20 | at least 10 fold | C[C@H](c1ccccc1)N1CCC(c2ccc(F)c(F)c2)N(C(=O)NCCCN2CCC(c3ccccn3)CC2)C1=O (stereo partly drawn) [Example 15 (Table 1, entry 1), 4-(3,4-difluorophenyl)-1-((R)-α-methylbenzyl)-3-[(4'-(2-pyridyl)piperidin-1'-yl)propyl]aminocarbonyltetrahydropyrimidin-2-one]
21 | at least 10 fold | C[C@H](c1ccccc1)N1CCC(c2ccc(F)c(F)c2)N(C(=O)NCCCN2CCC(c3ccccc3C#N)CC2)C1=O (stereo partly drawn) [Example 15 (Table 1, entry 2), 4-(3,4-difluorophenyl)-1-((R)-α-methylbenzyl)-3-[(4'-(2-cyanophenyl)piperidin-1'-yl)propyl]aminocarbonyltetrahydro-pyrimidin-2-one]
22 | at least 10 fold | COc1cc(F)ccc1[C@H]1CC[C@H](N2CC[C@@H](NC(=O)N3C(=O)N([C@H](C)c4ccccc4)CCC3c3ccc(F)c(F)c3)C2)CC1 (stereo partly drawn) [Example 15 (Table 1, entry 5), 3-[[3(R)-1-[trans-4-(2-methoxy-4-fluorophenyl)cyclohexyl]pyrrolidin-3-yl]-aminocarbonyl]-1-((R)-α-methylbenzyl)-4-(3,4-difluorophenyl)pyrimidin-2-one]
23 | at least 10 fold | CN1CCC(c2ccc(F)c(F)c2)N(C(=O)NCCCN2CCC(c3ccc(F)cc3)CC2)C1=O (centres unmarked) [Example 17, 4-(3,4-Difluorophenyl)-1-methyl-3-[(4'-(4-fluorophenyl)piperidin-1'-yl)propyl]aaminocarbonyltetrahydropyrimidin-2-one Hydrochloride]

Row | Structure (SMILES) | fold more selective in binding to alpha 1a receptors versus binding to the alpha 1b and alpha 1d receptors
24 | N#Cc1ccccc1C1(C#N)CCN(CCCNC(=O)N2C(=O)CCCC2c2ccc(F)c(F)c2)CC1 (racemic) [Example 5, (6RS)-, 6(R)- and 6(S)-1-[3-[4-(2-Cyanophenyl)-4-cyanopiperidin-1-yl]-propylaminocarbonyl]-6-(3,4-difluorophenyl)piperidin-2-one Hydrochloride] | at least 10 fold
25 | N#CC1(c2ccc(F)cc2)CCN(CCCNC(=O)N2C(=O)CCCC2c2ccc(F)c(F)c2)CC1 (single isomer, unassigned) [Example 6 (Enantiomer A), Hydrochloride] | at least 10 fold
26 | O=C1CCCC(c2ccc(F)c(F)c2)N1C(=O)NCCCN1CCC2(CCc3ccccc32)CC1 (single isomer, unassigned) [Example 7 (Enantiomer A), Hydrochloride] | at least 10 fold
